Laboratory results: PMC9596378, “Discovery and molecular basis of subtype-selective cyclophilin inhibitors” (Nature Chemical Biology, 2022)
“And” between values parts separate entries of the source, which are not always exact repeats. Equal values may be shown once. Read-outs that look alike come from different tables or passages of the source.

Legend:
Assay in all cases: Chymotrypsin coupled prolyl-isomerase assay
CypD = CypD (Homo sapiens, UniProt P30405); conditions: for CypD prolyl-isomerase assay raw dose-response value: Fig. 3b source data, replicates
Chain of CypD (P30405 45-207): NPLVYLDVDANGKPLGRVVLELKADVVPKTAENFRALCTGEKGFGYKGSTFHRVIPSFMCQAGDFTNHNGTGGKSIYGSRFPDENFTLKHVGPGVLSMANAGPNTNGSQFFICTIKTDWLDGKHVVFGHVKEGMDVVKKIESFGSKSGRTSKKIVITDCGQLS

CypA E81S/K82R = target: T1, CypA E81S/K82R (Homo sapiens, UniProt P62937, E81S/K82R); assay type: biochemical; conditions: mutant CypA E81S/K82R; read-out: Mutant Cyclophilin Prolyl Isomerase Inhibition IC50 Values, CypA E81S/K82R
T1 construct: Lane 12- SNA-CypA E81S/K82R (1-165);; His6 tag with TEV site (2BT vector); SNA remnant stays on the N-terminus (N, cleaved yes); made in house; host or cells: E. coli BL21(DE3)
T1 sequence (P62937 whole entry E81S/K82R): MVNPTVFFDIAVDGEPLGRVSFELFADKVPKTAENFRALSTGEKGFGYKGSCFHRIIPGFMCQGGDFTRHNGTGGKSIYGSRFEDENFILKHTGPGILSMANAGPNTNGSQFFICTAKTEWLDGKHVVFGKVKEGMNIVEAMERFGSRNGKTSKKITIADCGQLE
Outline: (§1)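 Steps: cyclophilin plus compound 5 min at 2–3 °C; α-chymotrypsin added, 5 min more; Suc-AAPF-AMC substrate in LiCl/trifluoroethanol injected and fluorescence followed 330 s. Finals: 5 nM enzyme, 25 µM chymotrypsin, 5 µM substrate, 0.25% DMSO.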

CypD K118A = target: T2, CypD K118A (Homo sapiens, UniProt P30405, K118A); assay type: biochemical; conditions: prolyl-isomerase inhibition
T2 construct: made in house; host or cells: E. coli BL21(DE3)
T2 sequence (P30405 45-207 K118A): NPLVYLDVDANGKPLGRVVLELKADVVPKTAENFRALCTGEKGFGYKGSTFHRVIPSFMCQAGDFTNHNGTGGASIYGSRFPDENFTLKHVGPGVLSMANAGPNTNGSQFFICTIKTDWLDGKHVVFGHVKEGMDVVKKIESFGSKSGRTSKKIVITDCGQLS
Outline: as §1

CypD K118E = target: T3, CypD K118E (Homo sapiens, UniProt P30405, K118E); assay type: biochemical; conditions: prolyl-isomerase inhibition
T3 construct: made in house; host or cells: E. coli BL21(DE3)
T3 sequence (P30405 45-207 K118E): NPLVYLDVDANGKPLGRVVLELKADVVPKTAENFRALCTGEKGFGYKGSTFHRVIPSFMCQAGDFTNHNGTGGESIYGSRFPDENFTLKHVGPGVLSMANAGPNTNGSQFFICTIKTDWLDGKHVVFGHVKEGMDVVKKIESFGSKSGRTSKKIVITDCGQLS
Outline: as §1

CypD R124A = target: T4, CypD R124A (Homo sapiens, UniProt P30405, R124A); assay type: biochemical; conditions: mutant CypD R124A; read-out: Mutant Cyclophilin Prolyl Isomerase Inhibition IC50 Values, CypD R124A
T4 construct: made in house; host or cells: E. coli BL21(DE3)
T4 sequence (P30405 45-207 R124A): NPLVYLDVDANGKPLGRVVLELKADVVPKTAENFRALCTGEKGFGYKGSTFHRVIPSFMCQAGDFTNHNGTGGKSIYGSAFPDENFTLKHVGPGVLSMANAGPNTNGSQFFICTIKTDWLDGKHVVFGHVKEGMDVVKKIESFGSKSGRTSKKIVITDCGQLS
Outline: as §1

CypD R124K = target: T5, CypD R124K (Homo sapiens, UniProt P30405, R124K); assay type: biochemical; conditions: mutant CypD R124K; read-out: Mutant Cyclophilin Prolyl Isomerase Inhibition IC50 Values, CypD R124K
T5 construct: made in house; host or cells: E. coli BL21(DE3)
T5 sequence (P30405 45-207 R124K): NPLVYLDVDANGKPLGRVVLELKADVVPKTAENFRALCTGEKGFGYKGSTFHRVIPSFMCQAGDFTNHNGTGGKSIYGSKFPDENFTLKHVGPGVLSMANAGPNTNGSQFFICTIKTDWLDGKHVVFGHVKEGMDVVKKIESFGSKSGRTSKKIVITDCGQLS
Outline: as §1

CypD S123E = target: T6, CypD S123E (Homo sapiens, UniProt P30405, S123E); assay type: biochemical; conditions: prolyl-isomerase inhibition
T6 construct: made in house; host or cells: E. coli BL21(DE3)
T6 sequence (P30405 45-207 S123E): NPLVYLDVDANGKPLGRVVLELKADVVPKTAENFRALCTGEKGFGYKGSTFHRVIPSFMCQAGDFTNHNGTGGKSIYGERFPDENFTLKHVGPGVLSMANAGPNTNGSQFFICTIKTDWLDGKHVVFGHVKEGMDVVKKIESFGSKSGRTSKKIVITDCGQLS
Outline: as §1

PPIL1 = target: T7, PPIL1 (Homo sapiens, UniProt Q9Y3C6); assay type: biochemical; conditions: for PPIL1 prolyl-isomerase assay raw dose-response value: Fig. 3b source data, replicates
T7 construct: PPIL1 (UniProtKB Entry Q9Y3C6: residues 1–166); made in house; host or cells: E. coli BL21(DE3)
T7 sequence (Q9Y3C6 1-166): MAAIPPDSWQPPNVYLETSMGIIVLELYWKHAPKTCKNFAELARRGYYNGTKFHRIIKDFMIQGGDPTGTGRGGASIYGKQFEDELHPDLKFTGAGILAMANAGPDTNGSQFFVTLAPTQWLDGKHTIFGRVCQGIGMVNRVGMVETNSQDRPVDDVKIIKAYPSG

PPWD1 = target: T8, PPWD1 (Homo sapiens, UniProt Q96BP3); assay type: biochemical; conditions: for PPWD1 prolyl-isomerase assay raw dose-response value: Fig. 3b source data, replicates
T8 construct: PPWD1 (UniProtKB Entry Q96BP3: residues 473–646); host or cells: E. coli BL21(DE3)
T8 sequence (Q96BP3 473-646): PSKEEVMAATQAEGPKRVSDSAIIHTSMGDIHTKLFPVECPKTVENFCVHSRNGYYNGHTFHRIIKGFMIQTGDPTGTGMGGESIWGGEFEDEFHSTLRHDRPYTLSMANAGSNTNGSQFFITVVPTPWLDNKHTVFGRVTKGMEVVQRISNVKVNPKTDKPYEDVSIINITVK

## NCCOCCNC(=O)[C@@H]1CCNC(=O)/C=C/C(=O)N2CCC[C@](Cc3ccccc3)(C2)C(=O)N[C@@H](Cc2ccc(-c3ccc(C#CC(=O)O)cc3)cc2)C(=O)NCc2ccccc2CC(=O)N1 [Compound B25]
CypD
  IC50: 3 nM
CypD; Dose 0.000457247 µM
  CypD prolyl-isomerase assay raw dose-response value: 0.0674 and 0.06729 and 0.07005
CypD; Dose 0.00137174 µM
  CypD prolyl-isomerase assay raw dose-response value: 0.06909 and 0.05826 and 0.0465
CypD; Dose 0.00411523 µM
  CypD prolyl-isomerase assay raw dose-response value: 0.04183 and 0.04697 and 0.03133
CypD; Dose 0.0123457 µM
  CypD prolyl-isomerase assay raw dose-response value: 0.02432 and 0.02391 and 0.02276
CypD; Dose 0.037037 µM
  CypD prolyl-isomerase assay raw dose-response value: 0.01562 and 0.01516 and 0.01481
CypD; Dose 0.111111 µM
  CypD prolyl-isomerase assay raw dose-response value: 0.01259 and 0.0133 and 0.01227
CypD; Dose 0.333333 µM
  CypD prolyl-isomerase assay raw dose-response value: 0.01238 and 0.01154 and 0.0111
CypD; Dose 1 µM
  CypD prolyl-isomerase assay raw dose-response value: 0.01437 and 0.01145 and 0.01083
CypA E81S/K82R
  IC50: 6.2 nM
CypD K118A
  IC50: 19 nM
CypD K118E
  IC50: 60 nM
CypD R124A
  IC50: 2 nM
CypD R124K
  IC50: 2.9 nM
CypD S123E
  IC50: 8 nM
PPIL1; Dose 0.0228624 µM
  PPIL1 prolyl-isomerase assay raw dose-response value: 0.0374 and 0.04134 and 0.04686
PPIL1; Dose 0.0685871 µM
  PPIL1 prolyl-isomerase assay raw dose-response value: 0.02743 and 0.02671 and 0.02724
PPIL1; Dose 0.205761 µM
  PPIL1 prolyl-isomerase assay raw dose-response value: 0.01848 and 0.01869
PPIL1; Dose 0.617284 µM
  PPIL1 prolyl-isomerase assay raw dose-response value: 0.01432 and 0.01378 and 0.01288
PPIL1; Dose 1.85185 µM
  PPIL1 prolyl-isomerase assay raw dose-response value: 0.01263 and 0.01274 and 0.01211
PPIL1; Dose 5.55556 µM
  PPIL1 prolyl-isomerase assay raw dose-response value: 0.01183 and 0.01164 and 0.01059
PPIL1; Dose 16.6667 µM
  PPIL1 prolyl-isomerase assay raw dose-response value: 0.01229 and 0.01158 and 0.01139
PPIL1; Dose 50 µM
  PPIL1 prolyl-isomerase assay raw dose-response value: 0.01421 and 0.01181 and 0.01108
PPIL1; wild-type PPIL1, read-out: Wild-Type Cyclophilin Prolyl Isomerase Inhibition IC50 Values, PPIL1
  IC50: 20 nM
PPWD1; Dose 0.0228624 µM
  PPWD1 prolyl-isomerase assay raw dose-response value: 0.03895 and 0.0361 and 0.043
PPWD1; Dose 0.0685871 µM
  PPWD1 prolyl-isomerase assay raw dose-response value: 0.04294 and 0.03257 and 0.04643
PPWD1; Dose 0.205761 µM
  PPWD1 prolyl-isomerase assay raw dose-response value: 0.03704 and 0.0362
PPWD1; Dose 0.617284 µM
  PPWD1 prolyl-isomerase assay raw dose-response value: 0.03731 (2×) and 0.0336
PPWD1; Dose 1.85185 µM
  PPWD1 prolyl-isomerase assay raw dose-response value: 0.03718 and 0.0343 and 0.0411
PPWD1; Dose 5.55556 µM
  PPWD1 prolyl-isomerase assay raw dose-response value: 0.03268 and 0.0311 and 0.02851
PPWD1; Dose 16.6667 µM
  PPWD1 prolyl-isomerase assay raw dose-response value: 0.02501 and 0.02576 and 0.02254
PPWD1; Dose 50 µM
  PPWD1 prolyl-isomerase assay raw dose-response value: 0.01888 and 0.01599 and 0.01588
PPWD1; prolyl-isomerase inhibition, 5 nM cyclophilin, read-out: IC50 PPWD1
  IC50: ~10 µM
PPWD1; wild-type PPWD1, read-out: Wild-Type Cyclophilin Prolyl Isomerase Inhibition IC50 Values, PPWD1
  IC50: 10 µM
